What was measured:
Test in all cases: MTT cell proliferation assay
Format in all cases: cell-based
Colo-201 cells = conditions: Homo sapiens, 72-hour MTT
Summary of the method: (§1)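 72-h MTT proliferation; 5,000-10,000 cells/well, overnight attachment; cpd 1 nM–30 μM, 8 concs; MTT ~4 h, formazan solubilized, OD490; % inhibition vs negative control, mean±SE, usually duplicate.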

NCI-H226 cells = conditions: Homo sapiens, 72-hour MTT
Summary of the method: as §1

HTB-38 cells = conditions: 72-hour MTT
Summary of the method: as §1

For `Nc1ccc(/C=C/C(=O)NCc2cc3cc(-c4ccc(C(=O)N5CCC(F)(F)CC5)cn4)cc(C(F)(F)F)c3o2)cn1` [Compound 585, (E)-3-(6-aminopyridin-3-yl)-N-((5-(5-(4,4-difluoropiperidine-1-carbonyl)pyridin-2-yl)-7-(trifluoromethyl)benzofuran-2-yl)methyl)acrylamide], the IC50 (Colo-201 cells) was 0.56 µM, the IC50 (NCI-H226 cells) was 6.78 µM and the IC50 (HTB-38 cells) was greater than 10 µM.

Reference: patent US12331040B2 (Karyopharm Therapeutics Inc., priority 2013, dated 2025)
